Like-named read-outs stand apart in the source and are kept apart here.
System: α7 integrin promoter
Assay: muscle cell-based assay: α7βgal+/− myoblasts/myotubes, LacZ reporter, β-galactosidase cleavage of FDG
Set-up: species or system mouse
Description: An α7 integrin null mouse was produced in which exon 1 of the gene encoding the α7 integrin was replaced by the LacZ reporter. In these mice, all the transcriptional regulatory elements of the α7 integrin promoter were retained, allowing β-galactosidase to report expression of 7 integrin. A primary myoblast cell line (designated α7βgal^+/−) isolated from 10 day old α7^+/− pups were analyzed for the ability of β-galactosidase to report α7 integrin expression. α7βgal^+/− myoblasts were differentiated and subjected to X-gal staining and western analysis (FIGS. 1A and 1B).
The activity of the α7 integrin promoter was measured by β-galactosidase cleavage of the non-fluorescent compound fluorescein di-β-D-galactopyranoside (FDG) to fluorescein. This assay was used to screen compound libraries to identify molecules that up-regulate α7 integrin expression in muscle.
Also evaluated was the effect of various isoforms of laminin and the ligand for α7β1 integrin on integrin expression. Positive hits were subjected to dose-response analysis, western analysis and a myostatin counterscreen (a negative regulator of muscle growth).

[1] = Mus musculus, given as log AC50 (negative values), read-out: Fit LogAC50 (converted)
[2] = curve class number, key not given
[3] = curve fit, activity at zero concentration

| Structure (SMILES) | EC50 [1] [µM] | Score (Table 12 compound data) | Fit Curve Class [2] | Fit HillSlope (curve fit) | Fit Zero Activity [%] [3] [%] | Fit Curve Class | Fit HillSlope | Fit Zero Activity [%] | Score | EC50 (Mus musculus, read-out: Fit LogAC50 (converted)) [µM] | Optimal Concentration (enhancement of α7 integrin expression in muscle cells) [μm] | EC50 (enhancement of α7 integrin expression in muscle cells, read-out: EC50) [µM] | α7 integrin expression in muscle (screen of DIVERSet library) |
| --- | --- | --- | --- | --- | --- | --- | --- | --- | --- | --- | --- | --- | --- |
| Cc1ccc(-c2nc(C)sc2CC(=O)OCC(=O)Nc2c(F)cccc2F)cc1 [Compound 210] | 12.6 | 42 | 2.1 | 4.9549 | 11.9156 | – | – | – | – | – | – | – | – |
| CNC(=O)/C(=C\c1cccc(Oc2ccccc2)c1)NC(=O)c1ccccc1 [Compound 211] | 11.2 | 42 | 2.1 | 1.1341 | −0.265 | – | – | – | – | – | – | – | – |
| O=S(=O)(NCC(c1ccco1)N1CCOCC1)c1ccc(Cl)cc1 (centres unmarked) [Compound 212] | 14.1 | 42 | 2.1 | 4.5045 | 9.0119 | – | – | – | – | – | – | – | – |
| C=CCc1c(C)nc(-c2ccccc2)nc1N/N=C/c1ccccc1 [Compound 213] | 11.2 | 42 | 2.1 | 1.2876 | −1.0122 | – | – | – | – | – | – | – | – |
| CCc1ccc(Sc2cc(C(=O)NCCN3CCOCC3)c3ccccc3n2)cc1 [Compound 214] | 11.2 | 42 | 2.1 | 2.0937 | 13.9034 | – | – | – | – | – | – | – | – |
| O=C(Nc1ccc(Oc2cccnc2)cc1)c1ccccc1Cl [Compound 215] | 10 | 42 | 2.1 | 2.1211 | 13.9023 | – | – | – | – | – | – | – | – |
| O=C(CNC(=O)c1cccc(F)c1)N/N=C/c1cc(Br)ccc1OCc1ccccc1 [Compound 216] | 10 | 42 | 2.2 | 0.8 | 3.67 | – | – | – | – | – | – | – | – |
| COc1ccc(CCNC(=O)c2cc(-c3cc(C)ccc3O)n[nH]2)cc1OC [Compound 217] | 10 | 42 | 2.2 | 3.0654 | 9.7958 | – | – | – | – | – | – | – | – |
| N#Cc1ccc(Sc2nc3ccccc3[nH]2)cc1C#N [Compound 218] | 10 | 42 | 2.2 | 3.6272 | 13.7566 | – | – | – | – | – | – | – | – |
| CC(=O)Nc1nonc1-c1nc2ccccc2n1CCC(C)C [Compound 219] | 11.2 | 42 | 2.2 | 1.5936 | −7.5793 | – | – | – | – | – | – | – | – |
| C=CCn1c(COc2ccc(Cl)cc2)nnc1SCc1ccc(C#N)cc1 [Compound 220] | 11.2 | 42 | 2.1 | 3.2975 | 8.1688 | – | – | – | – | – | – | – | – |
| O=C(Cn1nc(-c2ccc(Cl)cc2)ccc1=O)N1CCC2(CC1)OCCO2 [Compound 221] | – | – | – | – | – | 2.2 | 4.095 | 7 | 41 | 11.2 | – | – | – |
| CCOC(=O)/C(C(=O)c1ccccc1)=C(\N)NCCO [Compound 222] | 12.6 | 41 | 2.2 | 4.095 | 9.8519 | – | – | – | – | – | – | – | – |
| Cn1c(SCC(=O)c2ccccc2)nc2c(c1=O)C1(CCCC1)Cc1ccccc1-2 [Compound ID# 1001, 3-methyl-2-[(2-oxo-2-phenylethyl)thio]-3H-spiro[benzo[h]quinazoline-5,1″-cyclopentan]-4(6H)-one] | – | – | – | – | – | – | – | – | – | – | 12.5 | 3 | increased |

From US10028992B2, “Methods of treating muscular dystrophy” (BOARD OF REGENTS OF THE NEVADA SYSTEM OF HIGHER EDUCATION …, priority 2012, dated 2018)
